Experimental data: patent US20230130403A1, “METHODS OF TREATMENT WITH S1P RECEPTOR MODULATORS” (PRIOTHERA SAS, priority 2021, published 2023)
Where two headings read alike, the source gives them in different places.

Legend:
liver = experiment: Genomic profiling of the liver in a 2-week exploratory toxicity study in rats; type: in vivo, rat
rats [1] = experiment: Repeat-dose toxicity studies in rats; type: in vivo
Source text: (§1) Transitory activation of phagocytic cells and increased secretion of soluble markers by these cells is considered a main contributing factor to smooth muscle hypertrophy/hyperplasia.

QT prolongation [2] = experiment: QT prolongation in anaesthetized guinea pigs; type: in vivo, guinea pig
Source text: (§2) Based on the available in vitro and in vivo data, except for the potential to cause a negative chronotropic effect and some mild increase in blood pressure, there is no indication that KRP203 would cause arrhythmia or QT prolongation in man.

[3] = test system: healthy volunteers and patients (ulcerative colitis, subacute cutaneous lupus erythematosus, Crohn's disease); experiment: Placebo-controlled clinical trials of KRP203 in healthy volunteers and patients; type: in vivo, human
Procedure: The clinical experience with mocravimod includes single doses up to 40 mg in healthy volunteers and multiple doses up to 3 mg/day in healthy volunteers and patients. […] In the phase […] study, mocravimod was administered for up to around 3 months in patients with several different hematologic malignancies receiving allogeneic HSCT. […] However, patient numbers were low and efficacy results warrant more data in a more homogeneous patient population. To gather more data on both doses, this phase IIb study will investigate mocravimod at two different dose levels, a daily dose of 1 mg as well as of 3 mg.

[4] = rat, in vivo
mice [5] = experiment: Acute toxicity in mice; type: in vivo
chromosome aberration = experiment: In vitro genotoxicity: chromosome aberration; type: cell-based
[6] = test system: hematological cytotoxicity; experiment: Hematological cytotoxicity in vitro; type: cell-based; conditions: therapeutic concentrations in vitro
Source text: (§3) KRP203 reduces lymphocyte counts in peripheral blood by more than 80%.

dogs = experiment: Repeat-dose toxicity studies in dogs; type: in vivo
Source text: as §1

micronucleus = experiment: In vivo micronucleus study in mice; set-up: species or system mouse
bacterial mutation = experiment: In vitro genotoxicity: bacterial mutation; type: cell-based
[7] = test system: allogeneic-stimulated T cell proliferation; experiment: Mixed lymphocyte reactions (MLR); type: cell-based; conditions: therapeutic concentrations in vitro
Source text: as §3

[8] = dog, in vivo
[9] = test system: contact sensitizing potential; experiment: Contact sensitization; conditions: in vivo
blood pressure = experiment: Blood pressure in dogs; type: in vivo, dog
Source text: as §2

mice [10] = experiment: Repeat-dose toxicity studies in mice; conditions: mouse, in vivo
Procedure: (§4) The kidney was a target organ of toxicity in mice only and only in a 2-week study at doses ≥45 mg/kg.
(§5) Kidney impairment was most likely the primary cause of death/moribundity seen in this study.

[11] = Repeat-dose toxicity studies in mice; conditions: in vivo; 13-week mouse study, 20 mg/kg; read-out: systemic exposure (AUC0-24 h)
Procedure: as §4, §5

[12] = test system: bronchoconstrictor response induced by challenge agents; experiment: Safety pharmacology: bronchoconstrictor response in rats; type: in vivo, rat; conditions: rats pre-treated with 3 mg/kg
Source text: as §2

[13] = target: CYP3A4 via the human PXR receptor (Homo sapiens, UniProt O75469); experiment: CYP3A4 induction via PXR; type: in vitro ADME
Sequence of CYP3A4 via the human PXR receptor (O75469 whole entry): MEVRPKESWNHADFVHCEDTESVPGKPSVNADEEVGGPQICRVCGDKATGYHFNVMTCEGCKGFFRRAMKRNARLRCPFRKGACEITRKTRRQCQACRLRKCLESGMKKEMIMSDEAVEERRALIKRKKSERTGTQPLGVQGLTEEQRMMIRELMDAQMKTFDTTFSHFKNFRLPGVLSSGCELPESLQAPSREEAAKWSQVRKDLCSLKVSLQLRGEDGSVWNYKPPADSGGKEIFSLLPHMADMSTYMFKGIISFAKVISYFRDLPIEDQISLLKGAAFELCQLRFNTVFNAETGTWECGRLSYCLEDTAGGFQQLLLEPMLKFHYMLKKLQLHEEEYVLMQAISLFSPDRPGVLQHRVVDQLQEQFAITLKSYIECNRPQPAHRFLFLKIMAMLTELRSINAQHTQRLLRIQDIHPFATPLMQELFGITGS

heart rate = experiment: Heart rate in isolated rabbit heart or guinea pig
Source text: as §2

[14] = test system: respiratory function in dogs; experiment: Safety pharmacology: respiratory function in dogs; type: in vivo, dog; conditions: doses up to 20 mg/kg (highest dose tested)
Source text: as §2

rats [15] = experiment: Acute toxicity in rats; type: in vivo
[16] = test system: lymphocyte counts in peripheral blood; experiment: Reduction of lymphocyte counts in peripheral blood; conditions: in vivo
Source text: as §3

rabbit skin = experiment: Skin irritation; type: in vivo
eye irritation = experiment: Eye irritation; conditions: in vivo
rats and rabbits = experiment: Reproductive toxicity studies in rats and rabbits; type: in vivo
QT prolongation [17] = experiment: QT prolongation in telemetered dogs; type: in vivo, dog
Source text: as §2

[18] = test system: guinea pig papillary muscle preparation; experiment: APD in guinea pig papillary muscle preparation; conditions: concentrations of 3 μM
Source text: as §2

[19] = test system: pulmonary endothelial barrier; experiment: Pulmonary endothelial barrier after single oral dose; type: in vivo
Source text: as §2

CYP3A4 = CYP3A4 (Homo sapiens, UniProt P08684); experiment: Metabolism by CYP enzymes (in vitro data); type: in vitro ADME
Sequence of CYP3A4 (P08684 whole entry): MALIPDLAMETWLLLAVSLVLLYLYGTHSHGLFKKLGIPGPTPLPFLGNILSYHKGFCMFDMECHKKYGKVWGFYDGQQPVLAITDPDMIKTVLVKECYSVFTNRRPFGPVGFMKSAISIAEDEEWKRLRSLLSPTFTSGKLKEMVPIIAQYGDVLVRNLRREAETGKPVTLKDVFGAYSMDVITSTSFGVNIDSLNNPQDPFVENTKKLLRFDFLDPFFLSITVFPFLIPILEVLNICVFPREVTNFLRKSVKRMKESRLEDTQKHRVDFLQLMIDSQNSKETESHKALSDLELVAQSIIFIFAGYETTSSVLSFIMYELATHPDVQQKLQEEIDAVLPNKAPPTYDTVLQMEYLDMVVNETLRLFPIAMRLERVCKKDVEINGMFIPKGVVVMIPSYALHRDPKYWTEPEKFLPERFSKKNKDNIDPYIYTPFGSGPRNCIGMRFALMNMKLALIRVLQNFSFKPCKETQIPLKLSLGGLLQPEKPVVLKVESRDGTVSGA
Source text: The weak inhibitory effect of ciclosporin on hepatic CYP3A4 is unlikely to relevantly impact the PK of KRP203.

SMILES: NC(CO)(CO)CCc1ccc(Sc2cccc(OCc3ccccc3)c2)cc1Cl [KRP203, 2-amino-2-[4-(3-benzyloxyphenylthio)-2-chlorophenyl] ethyl-propane-1,3-diol]
- hepatotoxicity-related changes in genomic profiling of the liver (liver): did not indicate any hepatotoxicity-related changes
- local tolerability in the gastro-intestinal tract (rats [1]; oral dosing in rats or dogs up to 26 or 13 weeks): no indication for impaired local tolerability
- hepatic effects (rats [1]; rats and mice, not in dogs): mild and did only occur at high dose levels
- no mortality up to daily dose (rats [1]; rats, up to 26-week): ≤ 50 mg/kg
- QT prolongation (QT prolongation [2]): No indication for QT prolongation
- tolerability [3]: well tolerated
- increase of exposure at the end of the 13-week treatment compared to single dose ([4]; both, 13 weeks): 2-5 fold
- proportionality between exposure and dose [4]: apparent proportionality between exposure and dose
- intravenous dose producing lethality (mice [5]): above 50 mg/kg
- genotoxic potential (chromosome aberration): no evidence for a genotoxic potential
- exhibits hematological cytotoxicity [6]: does not
- gastro-intestinal findings (dogs; 26- and 52-week dog toxicity studies): gastro-intestinal tract disturbance with soft/mucoid stools and diarrhea occurred in males only at the high dose level
- no mortality up to daily dose (dogs; dogs, up to 52-week): ≤ 15 mg/kg
- genotoxic potential (micronucleus): no evidence for a genotoxic potential
- genotoxic potential (bacterial mutation): no evidence for a genotoxic potential
- inhibition of allogeneic-stimulated T cell proliferation [7]: does not inhibit
- accumulation after repeated dosing (4 and 13 weeks) [8]: no evidence of accumulation
- contact sensitizing potential [9]: does not have a contact sensitizing potential
- potential to increase blood pressure, extrapolated exposure (blood pressure): 20.3 µM
- doses with kidney toxicity (mice [10]; both, 2 weeks): ≥ 45 mg/kg
- doses with mortality (mice [10]; both, 2 weeks): ≥ 45 mg/kg/day
- no kidney changes up to highest dose level (mice [10]; 13 weeks): ≤ 20 mg/kg
- AUC0-24 [11]: ~7250 ng·h/mL
- effects on bronchoconstrictor response induced by challenge agents [12]: no significant effects
- no significant induction of CYP3A4 via the human PXR receptor up to concentration [13]: ≤ 6.15 µM
- potential to decrease heart rate, extrapolated exposure (heart rate): 20.1 µM
- effects on respiratory function [14]: no significant effects
- intravenous dose producing lethality (rats [15]): above 50 mg/kg
- oral dose producing lethality (rats [15]): 1000 mg/kg
- reduction of lymphocyte counts in peripheral blood [16]: more than 80%
- skin irritation (rabbit skin): not irritating
- eye irritation (eye irritation): marked eye irritation
- no effects on male fertility up to highest dose (rats and rabbits; in vivo): ≤ 20 mg/kg
- NOAEL for embryo lethality and malformations (rats and rabbits; rat study): no NOAEL
- reproductive toxicity (rats and rabbits; rats and rabbits): teratogenic potential and effects on the reproductive tract, resulting in embryo lethality and malformations at low doses
- QT prolongation (QT prolongation [17]): No indication for QT prolongation
- APD prolongation [18]: No APD prolongation
- effect on pulmonary endothelial barrier [19]: mildly decreased pulmonary endothelial barrier
- metabolism by CYP enzymes (CYP3A4): only to a limited extent
- metabolism by CYP enzymes (CYP3A4; listed as Mocravimod): mainly metabolized by the enzyme CYP3A4
